Reference: PMC5207512, “Inhibition of Helicobacter pylori and Its Associated Urease by Palmatine: Investigation on the Potential Mechanism” (PLoS ONE, 2017)
Values after ≈ are worked out from the molar mass of the structure shown. Values joined by “and” are separate entries in the source; they are usually repeats but may differ in a detail not shown here. Equal values may be shown once.

Key:
[1] = tested on: JBU; set-up: method as in PMID 26669678; conditions: cited from earlier work
[2] = tested on: HPU; set-up: method as in PMID 26669678; conditions: cited from earlier work
[3] = set-up: method as in PMID 23159469; conditions: among berberine, coptisine, palmatine and epiberberine; in vitro and in vivo assays; cited from earlier work
[4] = molecular target: T1, jack bean urease (JBU) (Canavalia ensiformis, UniProt P07374); experiment: biochemical; type: biochemical; conditions: Fig 4D JBU; BA or NaF 5 mM preincubated 20 min, Pal 0.5 mM 20 min
T1 construct: Urease from jack bean (Canavalia ensiformis, JBU); purchased Sigma-Aldrich (St Louis, MO, USA) type III (catalogue number not given)
Description: (§1) For the protection with inorganic compounds (BA and NaF), 0.25 mg/mL urease (HPU or JBU) was preincubated with 5 mM BA or 5 mM NaF for 20 min. Following preincubation, each sample of the protected urease was incubated with 0.5 mM Pal for 20 min. The samples containing a proper volume of respective buffer instead of Pal served as comparison with the abovementioned systems. The experiments were triply performed.

[5] = molecular target: T2, H. pylori urease (HPU) (Helicobacter pylori, UniProt P69996); experiment: biochemical; type: biochemical; conditions: Fig 4C HPU; BA or NaF 5 mM preincubated 20 min, Pal 0.5 mM 20 min
T2 construct: HPU was prepared as previously described; made in house
Description: as §1

[6] = tested on: H. pylori ATCC 43504; experiment: MIC by agar dilution method; type: cell-based; conditions: Helicobacter pylori
Description: (§2) A total of four H. pylori strains were studied, including three reference strains ATCC 43504, NCTC 26695 and SS1 gifted from Professor Richard Ferrero, Monash University, Australia, and one clinical isolate ICDC 111001 obtained from Professor Zhang Jianzhong, Chinese Center of Disease Control and Prevention. […] The MICs of Pal against the four H. pylori strains were evaluated by using agar dilution method. […] H. pylori strains were harvested and resuspended in PBS (1.0–2.0 McFarland were defined based on the strain properties). […] After 72 h, the MIC values were determined as the lowest concentration at which there was no strain growth judged by visual examination. Metronidazole was used as the positive control. The experiments were evaluated under two different pH (7.4 and 5.3) conditions and repeated twice.

[7] = tested on: H. pylori ICDC 111001 (clinical isolate); experiment: MIC by agar dilution method; type: cell-based; conditions: Helicobacter pylori
Description: as §2

[8] = tested on: H. pylori NCTC 26695; experiment: MIC by agar dilution method; type: cell-based; conditions: Helicobacter pylori
Description: as §2

[9] = tested on: H. pylori SS1; experiment: MIC by agar dilution method; type: cell-based; conditions: Helicobacter pylori
Description: as §2

T2 sequence (P14916 whole entry): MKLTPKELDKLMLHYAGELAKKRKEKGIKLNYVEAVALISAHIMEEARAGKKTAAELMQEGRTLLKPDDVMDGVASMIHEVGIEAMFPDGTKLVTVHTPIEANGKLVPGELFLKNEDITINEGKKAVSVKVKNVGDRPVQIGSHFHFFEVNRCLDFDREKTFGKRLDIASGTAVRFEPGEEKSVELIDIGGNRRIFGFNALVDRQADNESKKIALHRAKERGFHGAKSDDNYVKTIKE
T2 sequence (P69996 whole entry): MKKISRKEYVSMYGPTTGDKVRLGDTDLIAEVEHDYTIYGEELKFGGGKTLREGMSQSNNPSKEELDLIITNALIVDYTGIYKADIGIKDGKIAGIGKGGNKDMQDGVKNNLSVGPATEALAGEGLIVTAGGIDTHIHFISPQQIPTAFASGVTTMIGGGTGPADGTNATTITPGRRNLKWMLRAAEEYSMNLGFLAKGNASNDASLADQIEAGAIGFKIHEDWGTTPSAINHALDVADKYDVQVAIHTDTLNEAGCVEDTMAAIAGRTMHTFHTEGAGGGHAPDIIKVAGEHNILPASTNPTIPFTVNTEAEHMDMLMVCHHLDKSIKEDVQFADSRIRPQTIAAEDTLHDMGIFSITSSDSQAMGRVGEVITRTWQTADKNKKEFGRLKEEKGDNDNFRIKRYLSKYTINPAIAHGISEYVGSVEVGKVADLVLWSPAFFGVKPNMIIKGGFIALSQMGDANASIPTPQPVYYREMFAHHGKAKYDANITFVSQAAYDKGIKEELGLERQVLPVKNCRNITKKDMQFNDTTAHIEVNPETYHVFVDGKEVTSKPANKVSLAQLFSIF
T1 sequence (P07374 whole entry, looked up): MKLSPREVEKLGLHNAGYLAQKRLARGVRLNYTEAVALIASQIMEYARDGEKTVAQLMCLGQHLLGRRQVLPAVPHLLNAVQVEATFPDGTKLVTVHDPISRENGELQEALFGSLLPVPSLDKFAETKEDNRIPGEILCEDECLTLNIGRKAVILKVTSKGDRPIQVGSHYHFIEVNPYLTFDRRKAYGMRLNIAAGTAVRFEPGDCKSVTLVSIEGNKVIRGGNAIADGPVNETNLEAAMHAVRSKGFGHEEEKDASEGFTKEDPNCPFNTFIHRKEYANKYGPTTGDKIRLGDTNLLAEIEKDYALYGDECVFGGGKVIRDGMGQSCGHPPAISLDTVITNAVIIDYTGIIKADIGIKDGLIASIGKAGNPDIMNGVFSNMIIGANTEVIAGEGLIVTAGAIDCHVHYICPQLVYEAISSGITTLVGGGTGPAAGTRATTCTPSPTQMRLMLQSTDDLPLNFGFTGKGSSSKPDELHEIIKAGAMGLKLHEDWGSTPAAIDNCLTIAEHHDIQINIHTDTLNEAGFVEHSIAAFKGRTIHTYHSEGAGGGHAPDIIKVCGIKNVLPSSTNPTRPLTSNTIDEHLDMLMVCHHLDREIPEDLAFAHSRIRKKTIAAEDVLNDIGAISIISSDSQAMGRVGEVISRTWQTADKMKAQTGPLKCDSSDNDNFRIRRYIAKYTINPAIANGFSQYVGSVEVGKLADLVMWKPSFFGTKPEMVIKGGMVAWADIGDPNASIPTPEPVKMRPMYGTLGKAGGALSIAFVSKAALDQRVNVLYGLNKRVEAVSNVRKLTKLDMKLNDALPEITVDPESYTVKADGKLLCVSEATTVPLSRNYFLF

In the case of `COc1ccc2cc3[n+](cc2c1OC)CCc1cc2c(cc1-3)OCO2` [berberine], the IC50 [1] is listed as over 13 mM, the IC50 [2] is listed as 10.2 ± 1.1 mM and the toxicity [3] is listed as “relatively more toxic”.
With `[F-].[Na+]` [NaF, sodium fluoride] the “Residual urease activity (percent of control)” value [4] was 42.9% and 43.7771% and 43.724% and 41.2392% and the “Residual urease activity (percent of control)” value [5] was 54.6% and 54.7779% and 54.0024% and 55.0707%.
With `OB(O)O` [BA, boric acid] the “Residual urease activity (percent of control)” value [4] was 86.6% and 87.7694% and 84.1052% and 87.7801% and the “Residual urease activity (percent of control)” value [5] was 98.6% and 98.6098% and 99.1614% and 98.0689%.
`Cc1ncc([N+](=O)[O-])n1CCO` [Met, Metronidazole] showed an MIC ([6]; ATCC43504, pH 5.3, 72 h) of 0.5 µg/mL (≈ 2.92 µM), an MIC ([6]; ATCC43504, pH 7.4, 72 h) of 0.5 µg/mL (≈ 2.92 µM) and an MIC ([7]; pH 5.3, 72 h) of 2 µg/mL (≈ 11.7 µM). It also gave an MIC ([7]; pH 7.4, 72 h) of 2 µg/mL (≈ 11.7 µM), an MIC ([8]; NCTC26695, pH 5.3, 72 h) of 2 µg/mL (≈ 11.7 µM) and an MIC ([8]; NCTC26695, pH 7.4, 72 h) of 2 µg/mL (≈ 11.7 µM). It also gave an MIC ([9]; pH 5.3, 72 h) of 0.5 µg/mL (≈ 2.92 µM) and an MIC ([9]; pH 7.4, 72 h) of 0.5 µg/mL (≈ 2.92 µM).
